Results reported in patent publication US20080234368A9, “Therapeutic compositions and methods of use” (Trustees of Dartmouth College, priority 1998, published 2008).

Assays:
[1] = system: SW626 ovarian carcinoma cells; assay: Inhibition of cell proliferation (3H-thymidine incorporation); format: cell-based, human; settings: SW626 (Smad4/DPC4 mutation); 3 or 4 days, 3H-thymidine 2 h
Experimental: (§1) All cells were obtained from ATCC, except as noted. They were grown under standard conditions in either DMEM, DMEM/F 12, or RPMI 1640 media plus 5-10% FBS. CDDO, over the dose range 10^−6 to 10^−10 M, was added to cultures at the time of seeding. Three or 4 days later, cells were treated with ^3H-thymidine for 2 h (12 h in the case of leukemia cells), and then incorporation was measured. “ER” means estrogen receptor.
(§2) ^aThese cells all have […] mutations (Schutte et al. 1996).

[2] = system: MDA-MB-468 ER negative breast carcinoma cells; assay: as above; format: cell-based, human; settings: MDA-MB-468 (Smad4/DPC4 mutation); 3 or 4 days, 3H-thymidine 2 h
Experimental: as §1, §2

[3] = system: CAPAN-1 pancreatic carcinoma cells; assay: as above; format: cell-based, human; settings: CAPAN-1 (Smad4/DPC4 mutation); 3 or 4 days, 3H-thymidine 2 h
Experimental: as §1, §2

[4] = system: LPS-induced NO production in rat microglia; assay: LPS-induced NO production in primary microglial cultures; format: cell-based; settings: for inhibition of LPS induction of NO production: LPS 5 ng/ml, 18 h
Experimental: (§3) For the following examples, stock solutions of CDDO (0.01 M) were made in DMSO and aliquots frozen at −20° C. Serial dilutions were made in DMSO before addition to cell culture media. Primary rat microglia and hippocampal neurons were isolated and cultured as described by Flaris et al., 1993 and Ren and Flanders, 1996.
(§4) The roles of inflammatory mediators, as well as aberrant programs for cell survival and apoptosis, in the genesis of cancer and Alzheimer's Disease are now undergoing serious investigation (McGeer and McGeer, 1995; Merrill and Benveniste, 1996; Akama et al., 1998). CDDO was tested in this example as a suppressor of de novo formation of iNOS in cultured microglia (the resident macrophages of the brain), as well as its ability to protect cultured hippocampal neurons from cell death induced by β-amyloid. […] Thus, LPS (5 ng/ml) induced iNOS in primary microglial cultures and caused a 27-fold increase in production of NO within 18 h. Concomitant treatment of these cultures with CDDO at either 10^−6 or 10 ^−7 M inhibited this induction by 73% and 52%, respectively. We have also explored the possibility that CDDO can protect cultured hippocampal neurons from cell death induced by the peptide β-amyloid, since NO has been implicated (Akama et al., 1998) in the neurotoxic actions of this peptide which is central to the pathogenesis of Alzheimer's disease (Selkoe, 1997). Hippocampal neurons were isolated and cultured from 16 day rat embryos and then treated with CDDO for 24 h before adding the β-amyloid peptide fragment, amino acids 25-35, at a final concentration of 10 μM. This dosing with β-amyloid alone caused death of more than half of the neurons in the culture within 24 h, as measured by MTT assay.

[5] = system: 3T3-L1 fibroblasts; assay: Adipogenic differentiation, induction of GPDH; format: cell-based
Experimental: CDDO induces monocytic differentiation in the poorly differentiated LCDB acute myelogenous leukemia cell line, derived from a chemotherapy-resistant patient at the NCI Pediatric Oncology Branch. FIG. 11 illustrates LCDB cells seeded in RPMI 1640/2% FBS, either alone (11A), with 2.5 ng/ml TGF-β1 (11B), with 10^−8 M CDDO (11C), or with both TGF-β1 and CDDO (11D). After 48 h, cytospin slide preparations were made and stained for α-naphthyl acetate esterase activity (kit from Sigma). PC12 cells were cultured for 5 days in gridded dishes in DMEM/10% FBS and 5% horse serum (Smith et al., 1997), either alone (11E), with 100 ng/ml 7S NGF (11F), with 10^−6 M CDDO (11G), or with both NGF and CDDO (11H). […] Methods for quantitative image analysis of size of cells and neurites have been described (De 1a Torre et al., 1997). Control cells in FIG. 11E are approximately 10 μm in diameter. 3T3-L1 cells were grown to confluency in DMEM/5% calf serum, and then treated once with CDDO in DMEM/10% FBS (FIG. 12A) or with CDDO and/or LG100268 in DMEM/10% FBS (FIG. 12B). Every two days thereafter, medium was changed to DMEM/10% FBS, without added CDD0 or LG100268. Cells were harvested on day 8 (FIG. 12A) or day 6 (FIG. 12B), and GPDH was measured in lysates, using a standard assay for consumption of NADH at 340 nm (Wise and Green, 1979). […]

[6] = system: THP-1 monocytic leukemia line; assay: Differentiation of leukemia cells (data not shown); format: cell-based, human; settings: by itself or in combination with TGF-β1
[7] = molecular target: T1, COX-2 enzymatic activity (Mus musculus, UniProt Q05769); assay: Prostaglandin production in RAW cells with enzyme synthesis already induced; format: cell-based; settings: added after enzyme synthesis induced; data not shown
T1 construct: added to RAW cells in which synthesis of these two enzymes has already been induced; endogenous in cells; host or cells: RAW 264.7 mouse macrophage-like cells, enzyme synthesis pre-induced
T1 sequence (Q05769 18-604): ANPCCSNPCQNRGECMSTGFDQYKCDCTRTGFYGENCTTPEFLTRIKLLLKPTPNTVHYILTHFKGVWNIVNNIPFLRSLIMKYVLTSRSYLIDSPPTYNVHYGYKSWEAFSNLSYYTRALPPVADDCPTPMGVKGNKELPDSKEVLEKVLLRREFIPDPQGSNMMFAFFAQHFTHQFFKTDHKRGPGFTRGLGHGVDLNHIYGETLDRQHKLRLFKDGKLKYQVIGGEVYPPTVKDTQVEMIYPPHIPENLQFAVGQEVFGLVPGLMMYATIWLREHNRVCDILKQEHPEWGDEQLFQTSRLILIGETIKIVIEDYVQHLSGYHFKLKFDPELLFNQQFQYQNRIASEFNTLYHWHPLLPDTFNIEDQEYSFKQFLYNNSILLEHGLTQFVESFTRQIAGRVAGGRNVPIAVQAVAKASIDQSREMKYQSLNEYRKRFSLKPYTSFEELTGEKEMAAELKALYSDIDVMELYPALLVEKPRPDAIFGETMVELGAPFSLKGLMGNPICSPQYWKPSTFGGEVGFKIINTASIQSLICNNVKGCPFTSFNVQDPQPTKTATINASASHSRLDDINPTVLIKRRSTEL
Description: (§5) These effects of CDDO have been seen in primary mouse macrophages, a mouse macrophage-like tumor cell line (RAW 264.7), and in non-neoplastic human colon fibroblasts. […] Neither iNOS nor COX-2 expression can be detected in these cells until they are stimulated by an inflammatory mediator such as IFN-γ, or LPS. […] The above effects on INOS and COX-2 are also reflected in the cumulative production of their respective enzyme products, NO and PGE2, as measured in primary macrophages (FIG. 14C). […] Likewise, the actions of CDDO are not blocked by the glucocorticoid antagonist, RU-486, which is known to bind to the glucocorticoid receptor (data not shown). In these regards, CDDO is identical to the other oleanolic acid derivatives previously studied (Suh et al., 1998).

[8] = system: rat hippocampal neurons; assay: Protection of hippocampal neurons from β-amyloid induced cell death, MTT assay; format: cell-based
Experimental: as §3, §4

[9] = molecular target: T2, iNOS enzymatic activity (Mus musculus, UniProt P29477); assay: NO production in RAW cells with enzyme synthesis already induced; format: cell-based; settings: added after enzyme synthesis induced; data not shown
T2 construct: added to RAW cells in which synthesis of these two enzymes has already been induced; endogenous in cells; host or cells: RAW 264.7 mouse macrophage-like cells, enzyme synthesis pre-induced
T2 sequence (P29477 whole entry): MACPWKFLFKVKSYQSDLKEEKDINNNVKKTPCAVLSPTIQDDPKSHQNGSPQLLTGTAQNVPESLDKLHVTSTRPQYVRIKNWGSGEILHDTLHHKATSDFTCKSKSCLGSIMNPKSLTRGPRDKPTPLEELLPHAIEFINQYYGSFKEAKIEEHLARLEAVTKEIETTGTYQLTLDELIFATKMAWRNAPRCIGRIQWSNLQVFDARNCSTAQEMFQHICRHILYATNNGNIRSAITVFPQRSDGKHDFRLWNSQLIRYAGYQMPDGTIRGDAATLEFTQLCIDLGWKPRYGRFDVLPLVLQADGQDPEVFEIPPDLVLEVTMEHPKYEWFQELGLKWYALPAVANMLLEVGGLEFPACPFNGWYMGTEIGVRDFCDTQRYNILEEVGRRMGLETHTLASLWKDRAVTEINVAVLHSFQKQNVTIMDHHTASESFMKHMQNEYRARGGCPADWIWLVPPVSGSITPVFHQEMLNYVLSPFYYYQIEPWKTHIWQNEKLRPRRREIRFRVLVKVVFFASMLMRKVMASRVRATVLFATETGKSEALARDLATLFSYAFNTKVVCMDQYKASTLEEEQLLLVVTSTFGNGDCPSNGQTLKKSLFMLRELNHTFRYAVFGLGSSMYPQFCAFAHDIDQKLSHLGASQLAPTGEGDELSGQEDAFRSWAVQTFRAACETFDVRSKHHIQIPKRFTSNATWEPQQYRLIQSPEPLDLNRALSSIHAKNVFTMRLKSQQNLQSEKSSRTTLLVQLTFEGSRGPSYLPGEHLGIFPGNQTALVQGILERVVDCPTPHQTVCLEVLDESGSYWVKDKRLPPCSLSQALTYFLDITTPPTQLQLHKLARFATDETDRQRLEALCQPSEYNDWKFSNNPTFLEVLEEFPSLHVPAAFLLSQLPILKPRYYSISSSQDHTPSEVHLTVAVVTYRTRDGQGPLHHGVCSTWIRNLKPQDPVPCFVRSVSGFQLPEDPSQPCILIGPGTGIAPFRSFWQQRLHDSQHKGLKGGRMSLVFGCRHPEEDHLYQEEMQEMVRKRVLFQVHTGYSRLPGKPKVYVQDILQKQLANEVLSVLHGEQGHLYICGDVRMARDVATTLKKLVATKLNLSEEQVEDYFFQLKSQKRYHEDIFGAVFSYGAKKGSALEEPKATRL
Description: as §5

Compound CC1(C)CC[C@]2(C(=O)O)CC[C@]3(C)[C@H](C(=O)C=C4[C@@]5(C)C=C(C#N)C(=O)C(C)(C)[C@@H]5CC[C@]43C)[C@@H]2C1 [Compound 6, 2-cyano-3,12-dioxoolean-1,9-dien-28-oic acid] has an IC50 [1] of 300 nM, an IC50 [2] of 200 nM and an IC50 [3] of 300 nM. The “inhibition of LPS induction of NO production” value ([4]; CDDO 10^−6 M) was 73%, the “inhibition of LPS induction of NO production” value ([4]; CDDO 10^−7 M) was 52% and the “activity on LPS-induced NO production compared with dexamethasone (FIG. 2)” value ([4]; rat microglia cells) was “favorable to that of dexamethasone”. For the same compound, the “adipogenic differentiation, combination with RXR-selective retinoid LG100268” value ([5]; CDDO with LG100268, day 6) was “acts synergistically”, the “adipogenic differentiation, induction of GPDH” value ([5]; doses as low as 10^−8 M, without insulin, dexamethasone, IBMX, day 8) was “caused adipogenic differentiation” and the differentiative effects [6] was “differentiative effects”. The “immediate effect on prostaglandin production (direct inhibition of COX-2)” value [7] was “no immediate effect”, the “protection against β-amyloid induced cell death” value (“protection” below) ([8]; CDDO 10^−7 M, 24 h pretreatment, β-amyloid 25-35 10 μM, 24 h) was “totally prevented this cell death” and the “protection” value ([8]; CDDO 10^−8 M, 24 h pretreatment, β-amyloid 25-35 10 μM, 24 h) was “totally prevented this cell death”. For the same compound, the “protection” value ([8]; doses as low as 10^−10 M) was “some protective activity” and the “immediate effect on NO production (direct inhibition of iNOS)” value [9] was “no immediate effect”.
